Molecular target: T1, α5β2γ2 subtype GABAAR (Homo sapiens, UniProt P18507+P31644)
T1 construct: expressed in transfected cells
T1 sequence (P31644 32-462): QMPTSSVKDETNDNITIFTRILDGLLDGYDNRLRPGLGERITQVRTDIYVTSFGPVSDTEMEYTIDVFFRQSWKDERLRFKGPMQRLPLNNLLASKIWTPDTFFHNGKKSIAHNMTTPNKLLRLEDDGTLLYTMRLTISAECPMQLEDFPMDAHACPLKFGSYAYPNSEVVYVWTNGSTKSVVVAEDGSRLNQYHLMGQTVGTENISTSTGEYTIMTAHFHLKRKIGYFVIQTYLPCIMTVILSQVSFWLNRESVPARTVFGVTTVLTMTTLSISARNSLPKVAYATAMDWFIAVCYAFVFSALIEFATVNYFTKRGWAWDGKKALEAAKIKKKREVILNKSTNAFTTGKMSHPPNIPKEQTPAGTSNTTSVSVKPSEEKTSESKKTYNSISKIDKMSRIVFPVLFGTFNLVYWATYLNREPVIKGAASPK
T1 sequence (P47870 25-512 partner limits assumed): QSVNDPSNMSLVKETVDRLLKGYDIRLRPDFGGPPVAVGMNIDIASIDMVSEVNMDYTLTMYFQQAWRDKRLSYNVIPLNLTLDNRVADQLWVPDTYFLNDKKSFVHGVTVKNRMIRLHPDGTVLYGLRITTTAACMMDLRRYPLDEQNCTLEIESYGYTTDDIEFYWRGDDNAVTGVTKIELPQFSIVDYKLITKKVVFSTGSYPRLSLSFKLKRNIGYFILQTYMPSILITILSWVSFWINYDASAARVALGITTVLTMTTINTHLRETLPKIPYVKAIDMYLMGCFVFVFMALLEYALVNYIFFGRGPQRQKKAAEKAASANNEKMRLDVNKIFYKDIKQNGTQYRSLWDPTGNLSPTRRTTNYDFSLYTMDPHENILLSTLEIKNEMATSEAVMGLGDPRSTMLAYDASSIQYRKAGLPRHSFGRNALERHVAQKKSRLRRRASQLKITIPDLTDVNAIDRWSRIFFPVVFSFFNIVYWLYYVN
T1 sequence (P18507 40-467 limits assumed): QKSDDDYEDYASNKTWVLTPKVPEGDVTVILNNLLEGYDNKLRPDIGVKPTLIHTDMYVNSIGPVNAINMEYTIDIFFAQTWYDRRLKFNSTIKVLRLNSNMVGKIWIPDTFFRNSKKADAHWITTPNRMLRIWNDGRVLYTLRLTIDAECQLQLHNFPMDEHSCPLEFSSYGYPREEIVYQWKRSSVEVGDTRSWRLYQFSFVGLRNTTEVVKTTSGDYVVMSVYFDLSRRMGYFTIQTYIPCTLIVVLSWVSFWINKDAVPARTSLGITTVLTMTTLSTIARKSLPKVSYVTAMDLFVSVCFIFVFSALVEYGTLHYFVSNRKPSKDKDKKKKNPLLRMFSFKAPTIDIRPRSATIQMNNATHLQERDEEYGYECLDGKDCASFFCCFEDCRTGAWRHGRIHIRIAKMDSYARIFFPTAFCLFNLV
Assay: Positive allosteric modulator activity: potentiation of EC20 GABA current in oocytes
Type: cell-based
Conditions: read-out: GABA α5 Functional Data (potentiation), @ 100 nM, reported as ranges
Procedure: (B) Positive Allosteric Modulator Activity of Test Compounds on α5β2γ2 Subtype GABAAR
On day 1, 1 ng/32 nL of GABAA α5β2γ2 cDNA was injected into one oocyte. Test starts on day 2. The cDNA injected to the oocytes was a mix of alpha, beta and gamma, their ratio is 1:1:10 (by weight) and the total weight of the mixed 3 subunits to be injected in one oocyte was 1 ng in 32 nl volume. The injected oocytes can also be tested on day 3. In such case, the cDNA amount injected to the oocytes should be reduced by 20%.
Compounds of the present invention were tested using the following procedures.
• 1). 8 oocytes were placed in 8 chambers of OpusXpress and superfused with Modified Barth's Saline (MBS) at 3 mL/min. Glass electrodes back-filled with 3M KCl (0.5-3 megaohms) were used.
Control test (Diazepam or methyl 3,5-diphenylpyridazine-4-carboxylate) • 1). New oocytes was used to run new test. • 2). […] Oocytes were washed with MBS for 5-10 min. • 4). […] Itest was divided by IGABA to obtain potentiation (%). Test Compounds at Multiple Doses • 1). Repeat the above steps 1), 2) and 3) in the control test. • 2). […] Divide Itest by IGABA to obtain potentiation (%). • 3). Discard all tested oocytes, new oocytes were used and the above steps 1) and 2) were repeated to test second concentration of the same compound. Each oocyte was used for only one concentration test for a single test compound. The steps were repeated for other test compounds.

Structure (SMILES) | activation at 0.1 µM
COCc1nnc2n1Cc1c(-c3nc(-c4ccc(F)cc4)co3)ncn1-c1ccc(Cl)cc1-2 [Compound 324] | 20 to 50%
CCOCc1nnc2n1Cc1c(C3=N[C@@H](c4ccc(F)cc4)CO3)ncn1-c1ccc(Cl)cc1-2 [Compound 325] | 20 to 50%
CC(C)OCc1nnc2n1Cc1c(C3=N[C@@H](c4ccc(F)cc4)CO3)ncn1-c1ccc(Cl)cc1-2 [Compound 326] | 20 to 50%
C#Cc1ncn2c1Cn1c(COC)nnc1-c1cc(OC)ccc1-2 [Compound 328, 5-ethynyl-15-methoxy-9-(methoxymethyl)-2,4,8,10,11-pentaazatetracyclo[11.4.0.0^2,^60.0^8,^12]heptadeca-1(17),3,5,9,11,13,15-heptaene] | 5 to 20%
COCc1nnc2n1Cc1c(C3=N[C@@H](c4ccccc4C)CO3)ncn1-c1ccc(Cl)cc1-2 [Compound 330] | 20 to 50%
COCc1nnc2n1Cc1c(C3=N[C@@H](c4ccccc4OC)CO3)ncn1-c1ccc(Cl)cc1-2 [Compound 331] | 5 to 20%
COCc1nnc2n1Cc1c(C3=N[C@@H](c4ccc(OC)cc4)CO3)ncn1-c1ccc(Cl)cc1-2 [Compound 332] | 5 to 20%
COCc1nnc2n1Cc1c(C3=N[C@@H](c4cccc(OC)c4)CO3)ncn1-c1ccc(Cl)cc1-2 [Compound 333] | 5 to 20%
COCc1nnc2n1Cc1c(C3=N[C@@H](c4ccc(Cl)cc4)CO3)ncn1-c1ccc(Cl)cc1-2 [Compound 334] | 20 to 50%
COCc1nnc2n1Cc1c(C3=N[C@@H](c4cc(F)ccc4F)CO3)ncn1-c1ccc(Cl)cc1-2 [Compound 335] | 5 to 20%
COCc1nnc2n1Cc1c(C3=N[C@@H](c4ccc(C(F)(F)F)cc4)CO3)ncn1-c1ccc(Cl)cc1-2 [Compound 337] | 20 to 50%
CC#Cc1ncn2c1Cn1c(COC)nnc1-c1cc(Cl)ccc1-2 [Compound 339] | 20 to 50%
COCc1nnc2n1Cc1c(C3=N[C@H](c4ccccc4)CO3)ncn1-c1ccc(OC)cc1-2 [Compound 340] | 20 to 50%
CCOCc1nnc2n1Cc1c(-c3ncco3)ncn1-c1ccc(Cl)cc1-2 [Compound 341] | 5 to 20%
COCc1nnc2n1Cc1c(C3=N[C@@H](c4ccccc4)CO3)ncn1-c1ccc(OC)cc1-2 [Compound 343] | 20 to 50%
CCC#Cc1ncn2c1Cn1c(COC)nnc1-c1cc(Cl)ccc1-2 [Compound 345] | 20 to 50%
COCc1nnc2n1Cc1c(C#CCc3ccccc3)ncn1-c1ccc(Cl)cc1-2 [Compound 346] | 20 to 50%
Clc1ccc2c(c1)-c1nnc(COc3ccccc3)n1Cc1c(-c3ncco3)ncn1-2 [Compound 349] | 5 to 20%
Clc1ccc2c(c1)-c1nnc(COCc3ccccc3)n1Cc1c(-c3ncco3)ncn1-2 [Compound 350] | > 50%
C#Cc1ncn2c1Cn1c(COCc3ccccc3)nnc1-c1cc(Cl)ccc1-2 [Compound 351] | 20 to 50%
C#Cc1ncn2c1Cn1c(COc3ccccc3F)nnc1-c1cc(Cl)ccc1-2 [Compound 353, 15-chloro-5-ethynyl-9-(2-fluorophenoxymethyl)-2,4,8,10,11-pentaazatetracyclo[11.4.0.0^2,^60.0^8,^12]heptadeca-1(17),3,5,9,11,13,15-heptaene] | > 50%
CC#Cc1ncn2c1Cn1c(COc3ccccc3F)nnc1-c1cc(Cl)ccc1-2 [Compound 354] | 20 to 50%
Fc1ccccc1OCc1nnc2n1Cc1c(-c3ncco3)ncn1-c1ccc(Cl)cc1-2 [Compound 355] | 20 to 50%
C#Cc1ncn2c1Cc1cnnn1-c1cc(Cl)ccc1-2 [Compound 356] | > 50%
Clc1ccc2c(c1)-n1nncc1Cc1c(C3=N[C@@H](c4ccccc4)CO3)ncn1-2 [Compound 357] | 20 to 50%
Clc1ccc2c(c1)-n1nncc1Cc1c(C3=N[C@H](c4ccccc4)CO3)ncn1-2 [Compound 358] | 20 to 50%

Structure (SMILES) | activation at 0.1 µM
Fc1ccc([C@H]2COC(c3ncn4c3Cc3cnnn3-c3cc(Cl)ccc3-4)=N2)cc1 [Compound 359] | 5 to 20%
Fc1ccccc1[C@H]1COC(c2ncn3c2Cc2cnnn2-c2cc(Cl)ccc2-3)=N1 [Compound 360] | 20 to 50%
Clc1ccc([C@H]2COC(c3ncn4c3Cc3cnnn3-c3cc(Cl)ccc3-4)=N2)cc1 [Compound 361] | 20 to 50%
FC(F)(F)c1ccc([C@H]2COC(c3ncn4c3Cc3cnnn3-c3cc(Cl)ccc3-4)=N2)cc1 [Compound 362] | 20 to 50%
COc1ccc2c(c1)-n1nncc1Cc1c(C3=N[C@@H](c4ccc(F)cc4)CO3)ncn1-2 [Compound 367] | 5 to 20%
COc1ccc2c(c1)-n1nncc1Cc1c(C3=N[C@@H](c4ccc(Cl)cc4)CO3)ncn1-2 [Compound 368] | 5 to 20%
CC(C)c1coc(-c2ncn3c2Cc2cnnn2-c2cc(Cl)ccc2-3)n1 [Compound 387] | 20 to 50%
Clc1ccc2c(c1)-n1nncc1Cc1c(C#Cc3ccccc3)ncn1-2 [Compound 395] | 5 to 20%
Cc1ccccc1C#Cc1ncn2c1Cc1cnnn1-c1cc(Cl)ccc1-2 [Compound 396] | 5 to 20%
COc1ccc(C#Cc2ncn3c2Cc2cnnn2-c2cc(Cl)ccc2-3)cc1 [Compound 397] | 20 to 50%
FC(F)(F)CC#Cc1ncn2c1Cc1cnnn1-c1cc(Cl)ccc1-2 [Compound 398] | 20 to 50%
FC(F)(F)c1ccc(C#Cc2ncn3c2Cc2cnnn2-c2cc(Cl)ccc2-3)cc1 [Compound 400] | 20 to 50%
Clc1ccc2c(c1)-n1nncc1Cc1c(C#Cc3ccccn3)ncn1-2 [Compound 401] | 5 to 20%
Clc1ccc2c(c1)-n1nncc1Cc1c(C#Cc3cccnc3)ncn1-2 [Compound 402] | 20 to 50%
COc1ccc2c(c1)-n1nncc1Cc1c(C#Cc3ccccc3)ncn1-2 [Compound 404] | 5 to 20%
COc1ccc2c(c1)-n1nncc1Cc1c(C#Cc3ccccc3C)ncn1-2 [Compound 405] | 5 to 20%
COc1ccc2c(c1)-n1nncc1Cc1c(C#Cc3ccc(C(F)(F)F)cc3)ncn1-2 [Compound 406] | 20 to 50%
COc1ccc2c(c1)-n1nncc1Cc1c(C#Cc3cccnc3)ncn1-2 [Compound 407] | 5 to 20%
COc1ccc2c(c1)-n1nncc1Cc1c(C#Cc3ccccn3)ncn1-2 [Compound 408] | 5 to 20%
COc1cccc(C#Cc2ncn3c2Cc2cnnn2-c2cc(OC)ccc2-3)c1 [Compound 409] | 5 to 20%
COc1ccc2c(c1)-n1nncc1Cc1c(C#CCc3ccccc3)ncn1-2 [Compound 413] | 5 to 20%
COc1ccc(C#Cc2ncn3c2Cc2cnnn2-c2cc(OC)ccc2-3)cc1 [Compound 414] | 20 to 50%
CC(C)C#Cc1ncn2c1Cc1cnnn1-c1cc(Cl)ccc1-2 [Compound 415] | 20 to 50%
COc1ccc2c(c1)-n1nncc1Cc1c(C#CCc3cccc(Cl)c3)ncn1-2 [Compound 417] | 5 to 20%
COc1ccc2c(c1)-n1nncc1Cc1c(C#CCc3cccc(OC(F)(F)F)c3)ncn1-2 [Compound 418] | 20 to 50%
